The values that follow are results of earlier work, collected in US10039772B2, “Methods and compositions for treating alcohol use disorders” (priority 2015, dated 2018).

The subject of one data set is 11β-HSD1, 11β-HSD2. The settings on record: 11β-HSD isozyme specificity per cited reference; cited from earlier work.
For the compound `N#Cc1ccc(-c2ccc(S(=O)(=O)Nc3cccc(CO)n3)cc2)cc1` [Number 39], the Specificity is recorded as 11β- HSD1 > 2.

Regarding `O=C(CS(=O)(=O)c1ccccc1)c1ccc(C(F)(F)F)cc1` [Number 40], the Specificity was 11β- HSD1 > 2.

Consider `O=S(=O)(c1ccc(Cl)c(Cl)c1)N1CCN(c2ncccc2C(F)(F)F)CC1` [Number 41], for which the Specificity is recorded as 11β- HSD1 > 2.

Turning to `C[C@@H]1CN(c2ncc(F)cc2C(F)(F)F)CCN1S(=O)(=O)c1cccc(-n2cncn2)c1` [Number 42], the Specificity is reported as 11β- HSD1 > 2.

Consider `C[C@@H]1CN(c2ccc(F)cc2C(F)(F)F)CCN1S(=O)(=O)c1cccc([C@@](C)(O)C(F)(F)F)c1` [Number 43], for which the Specificity is 11β- HSD1 > 2.

For `C[C@@H]1CN(c2ccc(F)cc2C(F)(F)F)CCN1S(=O)(=O)c1ccc([C@@](O)(C(N)=O)C(F)(F)F)s1` [Number 45], the Specificity was 11β- HSD1 > 2.

Regarding `CCCSc1ncccc1C(=O)NC1CCCCC1` [Number 46], the Specificity is on record as 11β- HSD1 > 2.

For `O=C(N[C@H]1C2CC3CC1C[C@@](O)(C3)C2)c1cnc(N2CCOCC2)nc1C1CC1` [Number 48], the Specificity is given as 11β- HSD1 > 2.

As to `O=C(N[C@H]1C2CC3CC1C[C@@](O)(C3)C2)c1cnc(N[C@H]2CCOC2)nc1C1CCCC1` [Number 49], the Specificity is 11β- HSD1 > 2.

As for `CSc1nc(N2C[C@@H]3[C@H](C2)[C@H]3C(=O)O)ccc1C(=O)NC1C2CC3CC(C2)CC1C3` (stereo partly drawn) [Number 50], the Specificity is listed as 11β- HSD1 > 2.

On to `COc1ccc(N2C(=O)C(C)(C)C2c2ccccc2OC)cc1` (stereo not drawn) [Number 51], for which the Specificity is reported as 11β- HSD1 > 2.

On to `CC(C)(C)c1c(C(=O)NC2C3CC4CC(C3)CC2C4)cnn1-c1ccc(C(=O)O)cc1` (stereo not drawn) [Number 52], for which the Specificity is listed as 11β- HSD1 > 2.

Consider `CC1(C)C(=O)N(c2cccc(S(C)(=O)=O)c2)C1c1cccc2nccnc12` (stereo not drawn) [Number 53], for which the Specificity is 11β- HSD1 > 2.

In the case of `Nc1c(Cl)cc(C(=O)N(C2CCCC2)C2CC2)cc1Cl` [Number 54], the Specificity is reported as 11β- HSD1 > 2.

On to `C[C@@H]1CC(n2c(=O)[nH]c3ccccc32)C[C@@H](C)N1C(=O)c1cc(Cl)c(N)c(Cl)c1` (stereo partly drawn) [Number 55], for which the Specificity is listed as 11β- HSD1 > 2.

As for `O=C1C(Cc2ccccc2)CCN1C1CCCCC1` (stereo not drawn) [Number 56], the Specificity is recorded as 11β- HSD1 > 2.

On to `N#Cc1cccnc1N1CCN(CC(=O)NC2C3CC4CC(C3)CC2C4)CC1` (stereo not drawn) [Number 58], for which the Specificity is listed as 11β- HSD1 > 2.

For `O=C(CN1CCN(c2ccc(C(F)(F)F)cn2)CC1)NC1C2CC3CC1CC(O)(C3)C2` (stereo not drawn) [Number 59], the Specificity is listed as 11β- HSD1 > 2.

On to `CC(C)(C(=O)NC1C2CC3CC1CC(C(N)=O)(C3)C2)N1CCN(c2ccc(C(F)(F)F)cn2)CC1` (stereo not drawn) [Number 60], for which the Specificity was 11β- HSD1 > 2.

As for `CC(C)(Cc1ccc(Cl)cc1)C(=O)NC12CCC(C(N)=O)(CC1)CC2` [Number 61], the Specificity is 11β- HSD1 > 2.

Take `CC(C)(Oc1ccc(-n2cccn2)cn1)C(=O)N[C@H]1C2CC3CC1C[C@@](C(N)=O)(C3)C2` [Number 63]: the Specificity is 11β- HSD1 > 2.

With `CC1CCN(C(=O)c2cccc(CSc3c(Cl)cccc3Cl)n2)CC1` [Number 68], the Specificity is listed as 11β- HSD1 > 2.

For the compound `N#Cc1c(O)nc(SCc2ccccc2Cl)nc1-c1ccccc1` [Number 69], the Specificity was 11β- HSD1 > 2.

As for `Cc1ccc(-c2cccc(C(=O)N3CCCC(C)(C)C3)n2)cc1F` [Number 71], the Specificity is given as 11β- HSD1 > 2.

In the case of `Cc1c(Cl)cccc1Oc1cccn2c(C34CCC(O)(CC3)CC4)nnc12` [Number 72], the Specificity was 11β- HSD1 > 2.

As to `O=C(O)CC1C2CC3CC(C2)CC1C3` (stereo not drawn) [Number 73], the Specificity is recorded as 11β- HSD1 > 2.

For the compound `O=C(O)CC1(c2ccc(F)cc2)C2CCCC1CCC2` (stereo not drawn) [Number 74], the Specificity was 11β- HSD1 > 2.

As for `O[C@]12CC[C@](c3nnc4c(Oc5ccccc5Cl)cccn43)(CC1)C2` [Number 75], the Specificity is 11β- HSD1 > 2.

As to `O=C(NC1C2CC3CC(C2)CC1C3)N1CCCCC1` (stereo not drawn) [Number 76], the Specificity was 11β- HSD1 > 2.

`O=C(O)C[C@H]1CC2(CCN(C(=O)NC3C4CC5CC(C4)CC3C5)CC2)c2c(Br)cccc21` (stereo partly drawn) [Number 77]: the Specificity is recorded as 11β- HSD1 > 2.

For `O=C(OC1C2CC3CC(C2)CC1C3)N1CCCCC1` (stereo not drawn) [Number 78], the Specificity was 11β- HSD1 > 2.

On to `N#Cc1cccnc1N[C@@H]1CCN(C(=O)O[C@H]2C3CC4CC2C[C@@](C(N)=O)(C4)C3)C1` [Number 79], for which the Specificity is recorded as 11β- HSD1 > 2.

For `Cc1c(Cl)cccc1S(=O)(=O)NCc1ccc(C(=O)N2C[C@@H](C)O[C@@H](C)C2)cc1` [Number 82], the Specificity is listed as 11β- HSD1 > 2.

On to `CCCN(C(=O)c1ccc(CNS(=O)(=O)c2cccc(Cl)c2)cc1)C1CCCCCC1` [Number 83], for which the Specificity is 11β- HSD1 > 2.

For the compound `CCN(CC)C(=O)C1CCCN(S(=O)(=O)c2cccc(Cl)c2C)C1` (stereo not drawn) [Number 84], the Specificity was 11β- HSD1 > 2.

`CN(C(=O)c1csc(CNS(=O)(=O)c2cccc(Cl)c2)n1)C1CCCCCC1` [Number 85]: the Specificity was 11β- HSD1 > 2.

For `CN(C(=O)N1CCC(CN2C(=O)Nc3ccc(Cl)cc3S2(=O)=O)CC1)C1CCCCCC1` [Number 86], the Specificity is on record as 11β- HSD1 > 2.

With `Cc1c(Cl)cccc1S(=O)(=O)N1CCC[C@@H](C(=O)N[C@H]2C[C@@H]3CC[C@@]2(C)C3(C)C)C1` [Number 87], the Specificity is recorded as 11β- HSD1 > 2.

In the case of `C[C@]1(C(=O)N[C@H]2C3CC4CC2C[C@@](O)(C4)C3)CCCN1S(=O)(=O)c1cccc2cccnc12` [Number 90], the Specificity is recorded as 11β- HSD1 > 2.

`O=C(CN1C(C(=O)c2ccccc2)=C(O)c2ccccc2S1(=O)=O)c1ccccc1` [Number 91]: the Specificity is recorded as 11β- HSD1 > 2.

For `O=C(O)CC1(CC(=O)NCc2ccc(F)cc2Cl)CCCC1` [Number 93], the Specificity is reported as 11β- HSD1 > 2.

Consider `CC(C)(CC(=O)NC1CC1)CC(=O)N[C@H]1C2CC3CC1C[C@@](O)(C3)C2` [Number 94], for which the Specificity was 11β- HSD1 > 2.

`O=C1CC2(CCN(C(=O)C3(c4ccccc4)CC3)CC2)Oc2ccc(F)cc21` [Number 95]: the Specificity is reported as 11β- HSD1 > 2.

As for `O=C(N1CCC2(CCCCC2)C1)C1(c2ccccc2)CC1` [Number 96], the Specificity is on record as 11β- HSD1 > 2.

On to `COc1ccc(C(=O)N2CCC(c3c[nH]c4ccccc34)C2)c(C)c1` (stereo not drawn) [Number 97], for which the Specificity is listed as 11β- HSD1 > 2.

`CC(C)(C(=O)N1CCC(c2c[nH]c3ncccc23)C1)c1ccc(Cl)cc1` (stereo not drawn) [Number 98]: the Specificity was 11β- HSD1 > 2.

As for `O=C(N1CCC(c2c[nH]cn2)CC1)N1CCCc2ccccc21` [Number 99], the Specificity was 11β- HSD1 > 2.

On to `COc1ccc(-c2cnc(N3CCN(C(=O)N4CCC(c5cn[nH]c5)C4)c4ccccc43)nc2)cc1` (stereo not drawn) [Number 100], for which the Specificity is on record as 11β- HSD1 > 2.

On to `CC(C)(C)N1CCN(c2ccc(N3CCN(C(=O)N[C@H]4C5CC6CC4C[C@@](C(N)=O)(C6)C5)c4ccccc43)nc2)CC1` [Number 101], for which the Specificity was 11β- HSD1 > 2.

Take `COc1cc(C(=O)Nc2ccc(C(=O)N3CCCCC3)c(O)c2)cc(OC)c1OC` [Number 105]: the Specificity is listed as 11β- HSD1 > 2.

Regarding `O=C(Nc1ccc(C(=O)N2CCC[C@H]3CCCC[C@@H]32)c2ccccc12)c1ccc(Cl)cc1Cl` [Number 106], the Specificity is 11β- HSD1 > 2.

Regarding `COc1ccc(C(=O)N2CCCC(c3ccccc3)CC2)cc1` (stereo not drawn) [Number 107], the Specificity is recorded as 11β- HSD1 > 2.

In the case of `COC1(C)CCCN(S(=O)(=O)c2ccc(C(C)(C)C)cc2)CC1` (stereo not drawn) [Number 108], the Specificity was 11β- HSD1 > 2.

For `CC(C)(C)n1ncc2c1CCCN([C@H]1C3CC4CC1C[C@@](O)(C4)C3)C2=O` [Number 109], the Specificity is 11β- HSD1 > 2.

Regarding `CC1(C)CCN([C@H]2C3CC4CC2C[C@@](O)(C4)C3)C(=O)c2cnn(-c3ccc(Cl)cc3)c21` [Number 110], the Specificity is reported as 11β- HSD1 > 2.

With `CCN1CCN(C(=O)C23CC4CC(C2)CC(c2ccc(C)cc2)(C4)C3)CC1` [Number 111], the Specificity is on record as 11β- HSD1 > 2.

Regarding `Cc1ccc(-n2nnnc2SCC(=O)C(C)(C)C)c(C)c1` [Number 112], the Specificity was 11β- HSD1 > 2.

The data set is the same for the next values; noted with them: cited from earlier work.
In the case of `C[C@@H]1CN(c2ccc(F)cc2C(F)(F)F)CCN1S(=O)(=O)c1ccc(C(N)=O)cc1Cl` [Number 44], the Specificity is given as 11β- HSD1 > 2.

`CCCSc1nc(N2CCC[C@@H](CC(=O)O)C2)ccc1C(=O)NC1CCCCC1` [Number 47]: the Specificity is on record as 11β- HSD1 > 2.

For `CC(C(=O)NC1C2CC3CC1CC(O)(C3)C2)N1CCN(c2ccc(C(F)(F)F)cn2)CC1` (stereo not drawn) [Number 66], the Specificity was 11β- HSD1 > 2.

In the case of `CC1CCN(C(=O)c2ccc(CSc3ccc(Cl)cc3)cc2)CC1` [Number 67], the Specificity was 11β- HSD1 > 2.

Regarding `N#Cc1ncccc1CSc1nc(O)c(C#N)c2c1COCC2` [Number 70], the Specificity is 11β- HSD1 > 2.

Take `Cc1cccc(N2CCC(C)(c3ccccc3)OC2=O)c1` (stereo not drawn) [Number 80]: the Specificity is recorded as 11β- HSD1 > 2.

For `C[C@@H](c1ccc(-c2ccc(F)cc2F)cc1)N1CC[C@](CCO)(c2ccc(F)cc2)OC1=O` [Number 81], the Specificity is listed as 11β- HSD1 > 2.

Regarding `Cc1c(Cl)cccc1S(=O)(=O)N1CCCC[C@@H]1C(=O)N[C@H]1C2CC3CC1C[C@](O)(C3)C2` [Number 88], the Specificity is recorded as 11β- HSD1 > 2.

On to `Cc1c(Cl)cccc1S(=O)(=O)N1CCCC[C@@H]1C(=O)N[C@H]1C2CC3CC1C[C@](O)(C3)C2` [Number 89], for which the Specificity was 11β- HSD1 > 2.

Regarding `O=S1(=O)N=C(NC2CCCCC2)O[C@H]2CCCC[C@H]21` [Number 102], the Specificity is 11β- HSD1 > 2.

In the case of `CC1(C)OC(N[C@@H](CCO)c2ccc(F)cc2)=NS(=O)(=O)C1(C)C` [Number 103], the Specificity was 11β- HSD1 > 2.

For `O=C(Nc1cccc(C(=O)N2CCC[C@H]3CCCC[C@@H]32)c1)c1ccccc1` [Number 104], the Specificity was 11β- HSD1 > 2.
